These are literature values, as cited in patent US6413950B1, “Pharmaceutical preparation containing dithranol” (esparma GmbH, priority 1999, dated 2002).

The conditions of this data set: background statement on the active agent dithranol.

The structures appear in SMILES notation.

Regarding `O=C1c2c(O)cccc2Cc2cccc(O)c21` [Dithranol], the solubility in water entry is listed as “not soluble in water”.
